Data reported in ChEMBL document CHEMBL1201862, “PubChem BioAssay data set” (2004).
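Interpolation was linear, between the two tested concentrations surrounding the appropriate level; five concentrations were tested over 48 hours in 96-well plates. Abbreviation: GI50, concentration required for 50% inhibition of growth.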 The source made the active and inactive calls. Rule as the data show it: active = GI50 up to about 1.1 µM and inactive = higher.

Assays:
Assay in all cases: NCI-60 cell line screen, 48 h
KM12 = system: KM12
EKVX = system: EKVX
DLD-1 = system: DLD-1
COLO 205 = system: COLO 205
CAKI-1 = system: CAKI-1
U-251 = system: U-251
OVCAR-3 = system: OVCAR-3
HCT-15 = system: HCT-15
SF-539 = system: SF-539
MDA-N = system: MDA-N
SW-620 = system: SW-620
SR = system: SR
M14 = system: M14
BT-549 = system: BT-549
HCC 2998 = system: HCC 2998
K562 = system: K562
NCI-H23 = system: NCI-H23
HOP-92 = system: HOP-92
MCF7 = system: MCF7
TK-10 = system: TK-10

Row | SMILES | GI50 (KM12) | GI50 (EKVX) | GI50 (DLD-1) | GI50 (COLO 205) | GI50 (CAKI-1) | GI50 (U-251) | GI50 (OVCAR-3) | GI50 (HCT-15) [nM] | GI50 (SF-539) | GI50 (MDA-N) | GI50 (SW-620) | GI50 (SR) | GI50 (M14) | GI50 (BT-549) | GI50 (HCC 2998) | GI50 (K562) | GI50 (NCI-H23) | GI50 (HOP-92) | GI50 (MCF7) | GI50 (TK-10)
1 | COc1ccc(NC(=O)CC(=O)n2nc(-c3ccccc3)c(/N=N/c3ccc(C)cc3)c2-c2ccccc2)cc1 | 65600 nM (inactive) | 21800 nM (inactive) | > 79300 nM (inactive) | > 100000 nM (inactive) | 55300 nM (inactive) | 20800 nM (inactive) | 43000 nM (inactive) | > 100000 | 25400 nM (inactive) | > 100000 nM (inactive) | 69500 nM (inactive) | 47200 nM (inactive) | 52600 nM (inactive) | 21200 nM (inactive) | 62800 nM (inactive) | > 85300 nM (inactive) | 28400 nM (inactive) | 16800 nM (inactive) | > 52100 nM (inactive) | 36200 nM (inactive)
2 | COC1C(O)C(C)OC(OC2C(Oc3cccc4c(O)c5c(=O)oc6ccc(C)c7c(=O)oc(c34)c5c67)OC(C)C(O)C2O)C1O (centres undefined) | 1640 nM (inactive) | 1340 nM (inactive) | 1260 nM (inactive) | 3410 nM (inactive) |  | 959 nM (active) | 2340 nM (inactive) | 3030 | 1510 nM (inactive) | 2010 nM (inactive) | 843 nM (active) | 373 nM (active) | 4130 nM (inactive) | 1900 nM (inactive) | 2160 nM (inactive) | 804 nM (active) | 1280 nM (inactive) | 233 nM (active) | 757 nM (active) | 3100 nM (inactive)
3 | CN(C)CCN1C(=O)c2cccc3cc([N+](=O)[O-])cc(c23)C1=O [MITONAFIDE] | 321 nM (active) | 624 nM (active) | 873 nM (active) | 191 nM (active) | 153 nM (active) | 213 nM (active) | 1370 nM (inactive) | 290 | 155 nM (active) | 1490 nM (inactive) | 170 nM (active) | 129 nM (active) | 479 nM (active) | 904 nM (active) | 1110 nM (active) | 1560 nM (inactive) | 308 nM (active) | 255 nM (active) | 165 nM (active) | 2130 nM (inactive)
